Laboratory results from patent publication US20090281061A1, “Impaired Alleles of Genes Involved in Metabolic Pathways and Methods for Detecting and Using the Same” (The Regents of the University of California, priority 2008, published 2009).

Experiments:
human MTHFR [1] = experiment: Cell-free MTHFR enzyme activity assay in crude yeast extract, with heat treatment at 55° C.; assay type: biochemical; conditions: crude yeast lysate
human MTHFR [2] = target: T1, human MTHFR (Homo sapiens, UniProt P42898); experiment: as above; assay type: biochemical; conditions: 55° C., 20 m
T1 construct: made in house; host or cells: Saccharomyces cerevisiae fol3Δ met13Δ, GAL1 promoter, crude extract

| Substance | cell-free enzyme activity compared with the major allele (human MTHFR [1]) | activity retained after heat treatment, of original activity (human MTHFR [2]) |
| --- | --- | --- |
| E429A: common human MTHFR variant, regulatory domain | benign | – |
| R594Q: common human MTHFR variant, regulatory domain | benign | – |
| major allele: the most common human MTHFR allele in the population, expressed in yeast | – | about 30% |
